This is an account of results in US20210251883A1, “METHOD FOR PREPARING ENZYME-TREATED ZIZANIA LATIFOLIA TURCZ. EXTRACT HAVING INCREASED TRICIN CONTENT, AND COMPOSITION FOR WHITENING, WRINKLE REDUCTION, ANTI-INFLAMMATION, ANTI-ALLERGY AND MOISTURIZATION, PREPARED THEREBY” (BTC CORPORATION, priority 2018, published 2021).

The test system of assay [1] is RAW264.7 cells. Put plainly: NO assay in lipopolysaccharide-induced macrophage cell line RAW264.7. Type of assay: cell-based. Particulars: concentration series of single substance; versus LPS. The procedure: The production of NO was confirmed through the NO assay, and the specific process was as follows: The macrophage cell line RAW264.7 was distributed from the Korea Cell Line Bank (KCLB, Seoul, Korea), and using DMEM medium (Welgene, Gyeongsan, Korea) to which 10% FBS and 1% antibiotics (penicillin/streptomycin) were added, the cells were subcultured 2 to 3 times in an incubator at 37° C. in the presence of 5% CO2 and used.
RAW264.7 cells were dispensed into a 96-well plate at […] and pre-cultured in a 5% CO2 incubator for 20 to 24 hours, and each extract sample was treated and cultured for 24 hours. […] After the reaction was completed, optical density (O.D) was measured with an ELISA reader at a wavelength of 540 nm. At this time, the measured O.D was expressed as a percentage (%) compared with the O.D value in the cells to which lipopolysaccharide was added.
Second, NO assay was performed to measure the anti-inflammatory effect of the Zizania latifolia Turcz. extract and tricin using RAW264.7. […] After the reaction was completed, optical density (O.D) was measured with an ELISA reader at a wavelength of 540 nm. At this time, the measured O.D was expressed as a percentage (%) compared with the O.D value in the cells to which lipopolysaccharide was added. […]

In assay [2] the test system is B16-F0 cells. Put plainly: inhibition of melanin production in melanin cell line B16-F0 (α-MSH/IBMX stimulated). Type of assay: cell-based, mouse. The following applies: concentration series of single substance. The procedure: The whitening effect of the Zizania latifolia Turcz. extract prepared in the above Preliminary Experiments 2 to 4 was confirmed. First, mouse-derived melanin cell line B16-F0 cells were distributed from the American Type Culture Collection (ATCC, USA), and using DMEM medium (ATCC, ATCC 30-2002, USA) to which 10% FBS and 1% antibiotics (penicillin/streptomycin) were added, the cells were subcultured 2 to 3 times in an incubator at 37° C. in the presence of 5% CO2 and used.
Second, the ability of the Zizania latifolia Turcz. extract and tricin to inhibit melanin production in the mouse-derived melanin cell line B16-F0 was measured. B16-F0 cells were dispensed into a 6-well plate at 5×10^5 cells/well and pre-cultured in a 5% CO2 incubator for 20 to 24 hours, and then each extract sample was treated and cultured for 48 hours. […]
The melanoma cells adhered to the surface of the 6-well plate were removed from the cultured cells, dispensed into a 1.5 mL tube, and centrifuged at 13,000 rpm for 10 minutes using a centrifuge maintained at 4° C. […] After reacting for 1 hour in an oven at 60° C., 100 μL was dispensed to each well in a 96-well plate and O.D was measured with an ELISA reader (405 nm). […]

The test system of assay [3] is CCD-986sk fibroblast cells, human dermal fibroblasts (HDF). Put plainly: procollagen type I C-peptide EIA, collagen synthesis in fibroblasts. Format: cell-based. The following applies: concentration series of single substance. The procedure:
The anti-wrinkle effect of the Zizania latifolia Turcz. extract prepared in Preliminary Experiments 2 to 4 was confirmed. First, human-derived CCD-986sk fibroblast cells were distributed from Korea Culture Tissue Collection (KCTC, Korea), and human dermal fibroblasts (HDF) were distributed from Seorin Bio. In addition, CCD-986sk fibroblasts were subcultured 2 to 3 times in an incubator at 37° C. in the presence of 5% CO2 using IMDM medium (ATCC, ATCC 30-2005, USA) supplemented with 10% FBS and 1% antibiotics (penicillin/streptomycin) and used. […]
Second, procollagen and MMP families (MMP-1, 2, 3, 9, 13) are factors that are discharged to the outside of the cell culture solution, and the cell culture solution reacted with the sample was collected and used. […] (standard sample), procollagen type I C-peptide EIA kit manufactured by Takara was used, the quantification curve was measured using PIP to calculate the amount of collagen synthesis for each sample. In addition, by measuring the inhibitory ability of metalloproteinase-1 (MMP-1), MMP-2, MMP-3, MMP-9, and […], which are factors affecting wrinkles, Zizania latifolia Turcz. enzyme treatment (standard sample) and tricin were evaluated for wrinkle improvement effect. The inhibitory ability of MMP-1, 2, 3, 9, 13 was measured using a product manufactured by Abcam.

Assay [4] has as its system RBL-2H3 cells. Put plainly: β-hexosaminidase release in IgE/antigen-stimulated RBL-2H3 cells. Format: cell-based, rat. Particulars: concentration series of single substance; versus DNP-HSA. On the procedure:
The anti-allergic efficacy of the Zizania latifolia Turcz. extract prepared in the above Preliminary Experiments 2 to 4 was confirmed. First, RBL-2H3 cells, a rat basophilic leukemia cell line, were purchased from Korea Cell Line Bank (KCLB, Seoul, Korea). RBL-2H3 cells were cultured in MEM (Gibco BRL, NY, USA) medium containing 10% FBS and 1% penicillin/streptomycin in an incubator at 37° C. and 5% CO2.
Second, the inhibitory effect of the extract on the release of β-hexosaminidase was confirmed in RBL-2H3 cells. RBL-2H3 cells were dispensed into a 24-well plate at 2×10^5 cells per well and stimulated with anti-DNP IgE (450 ng/mL) overnight at 37° C. […] Then, the reaction was stopped by immersing in an ice water bath for 10 minutes. 25 μL of the supernatant was transferred to a 96-well plate and 25 μL of 0.1 M citrate buffer (pH 4.5) in which the substrate (1 mM p-nitrophenyl-nacetyl-β-D-glucosaminide) is dissolved, was added and reacted at 37° C. for 1 hour. Thereafter, 200 μL of a stop solution (0.1 M Na2CO3/NaHCO3, pH 10.0) was added to stop the reaction, and the absorbance was measured at 405 nm using a microplate reader.

The test system of assay [5] is SKH-1 hairless mouse. Put plainly: UVB-irradiated wrinkle-induced SKH-1 hairless mouse animal experiment. Type of assay: in vivo. The text has this: The anti-wrinkle improvement and moisturizing effects were confirmed through animal experiments for the enzyme-treated extract of Zizania latifolia Turcz. prepared in the above Example 1. For the experiment, biochemical analysis equipment (Roche Ltd, Basel, Switzerland), glass teflon homogenizer (Chang shin scientific Co., Korea), microplate reader (Bio-TEK, USA), protein quantification equipment (Chemi-Doc; BIORAD, USA), a centrifuge (Hanil FLETA5, Korea), a water bath (Thermo minder taitec, Japan), and a deep freezer (Sanyo, Japan) were used. In addition, glass Teflon homogenizer (Daihan Scientific Group, Korea), UV-spectrophotometer (Shimadzu UV-1201, Japan), high-speed centrifuge (Hanil HMR-1610V, Korea), medical freezer (Sanyo, Japan)), a microplate reader (Bio-TEK), and protein quantification equipment (Chemi-Doc; BIORAD) were used. […]
First, the body weight of each animal was measured to observe the change in body weight. […]

On to `COc1cc(-c2cc(=O)c3c(O)cc(O)cc3o2)cc(OC)c1O` [tricin, Tricin], for which the “NO generation according to the concentration (FIG. 7)” value in assay [1] is “decreased in a concentration-dependent manner”. Also, the “melanin generation according to the concentration (FIG. 9)” value in assay [2] is recorded as “decreased in a concentration-dependent manner”. Moreover, the “collagen generation according to the concentration (FIG. 11)” value in assay [3] is “increased in a concentration-dependent manner”. For the same compound, the “β-hexosaminidase release rate according to the concentration (FIG. 13)” value in assay [4] is recorded as “decreased in a concentration-dependent manner”. Besides, the “moisture of the skin surface” value in assay [5] (T group, 0.3 mg/kg oral, 14 weeks, UVB, FIG. 16) is “maintained”. The “SILFLO microscopic observation of wrinkles versus group C” value in assay [5] (group T, tricin 2 mg/kg as printed, until the 8th week of UVB irradiation) is given as “wrinkles were relatively less formed compared to group C”.
